For 16 molecules, IC50 results are on record in US10167280B2, “Substituted oxopyridine derivatives” (BAYER PHARMA AKTIENGESELLSCHAFT, priority 2014, dated 2019).

The target in one assay is human factor XIa (Homo sapiens (Human), UniProt P03951). Briefly: Measurement of FXIa inhibition (fluorogenic peptide substrate Boc-Glu(OBzl)-Ala-Arg-AMC). To be noted: Table A, 30 min at 22° C., fluorescence. Format: biochemical. Here is the method: The factor XIa inhibition of the substances according to the invention is determined using a biochemical test system which utilizes the reaction of a peptidic factor XIa substrate to determine the enzymatic activity of human factor XIa. Here, factor XIa cleaves from the peptic factor XIa substrate the C-terminal aminomethylcoumarin (AMC), the fluorescence of which is measured. The determinations are carried out in microtitre plates.
Sequence of human factor XIa (P03951 388-625): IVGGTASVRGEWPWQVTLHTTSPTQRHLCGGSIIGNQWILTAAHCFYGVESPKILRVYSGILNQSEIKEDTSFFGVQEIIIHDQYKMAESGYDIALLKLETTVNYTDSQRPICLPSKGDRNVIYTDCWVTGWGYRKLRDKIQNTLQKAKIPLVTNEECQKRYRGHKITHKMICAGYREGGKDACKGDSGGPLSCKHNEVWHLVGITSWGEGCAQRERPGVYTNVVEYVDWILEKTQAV
Sequence of human factor XIa (P03951 19-387 partner): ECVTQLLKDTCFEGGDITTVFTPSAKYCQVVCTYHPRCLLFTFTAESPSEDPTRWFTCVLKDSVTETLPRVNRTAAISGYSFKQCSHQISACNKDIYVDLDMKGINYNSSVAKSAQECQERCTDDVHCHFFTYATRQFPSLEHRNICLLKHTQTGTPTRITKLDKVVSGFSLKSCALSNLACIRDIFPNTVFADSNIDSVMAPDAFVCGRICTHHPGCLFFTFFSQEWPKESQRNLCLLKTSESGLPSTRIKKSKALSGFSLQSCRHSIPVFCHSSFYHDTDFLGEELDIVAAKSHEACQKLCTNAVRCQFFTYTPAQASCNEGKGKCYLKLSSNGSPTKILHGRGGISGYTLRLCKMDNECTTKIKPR
1 μl of the diluted substance solutions is placed into each of the wells of white microtitre plates from Greiner (384 wells). […] After […] of incubation, the enzyme reaction is started by addition of 20 μl of the factor XIa substrate Boc-Glu(OBzl)-Ala-Arg-AMC dissolved in assay buffer (10 μM in assay buffer) from Bachem, the mixture is incubated at room temperature (22° C.) for 30 min and fluorescence is then measured (excitation: 360 nm, emission: 460 nm). The measured emissions of the test batches with test substance are compared to those of control batches without test substance (only dimethyl sulphoxide instead of test substance in dimethyl sulphoxide), and IC50 values are calculated from the concentration/activity relationships.

The next assay deals with human plasma kallikrein (Homo sapiens (Human), UniProt P03952). Briefly: Determination of the plasma kallikrein activity (fluorogenic peptide substrate H-Pro-Phe-Arg-AMC). To be noted: Table B; plasma kallikrein inhibition, 30 min at 22° C., fluorescence. Format: biochemical. The protocol:
To determine the plasma kallikrein inhibition of the substances according to the invention, a biochemical test system is used which utilizes the reaction of a peptidic plasma kallikrein substrate to determine the enzymatic activity of human plasma kallikrein. Here, plasma kallikrein cleaves from the peptic plasma kallikrein substrate the C-terminal aminomethylcoumarin (AMC), the fluorescence of which is measured. The determinations are carried out in microtitre plates.
1 μl of the diluted substance solutions is placed into each of the wells of white microtitre plates from Greiner (384 wells). 20 μl of assay buffer (50 mM Tris/HCl pH 7.4; 100 mM sodium chloride solution; 5 mM of calcium chloride solution; 0.1% of bovine serum albumin) and 20 μl of plasma kallikrein from Kordia (0.6 nM in assay buffer) are then added successively. After 15 min of incubation, the enzyme reaction is started by addition of 20 μl of the substrate H-Pro-Phe-Arg-AMC dissolved in assay buffer (10 μM in assay buffer) from Bachem, the mixture is incubated at room temperature (22° C.) for 30 min and fluorescence is then measured (excitation: 360 nm, emission: 460 nm). The measured emissions of the test batches with test substance are compared to those of control batches without test substance (only dimethyl sulphoxide instead of test substance in dimethyl sulphoxide), and IC50 values are calculated from the concentration/activity relationships.

Each structure is given as a SMILES string.

Sequence of human plasma kallikrein (P03952 391-638): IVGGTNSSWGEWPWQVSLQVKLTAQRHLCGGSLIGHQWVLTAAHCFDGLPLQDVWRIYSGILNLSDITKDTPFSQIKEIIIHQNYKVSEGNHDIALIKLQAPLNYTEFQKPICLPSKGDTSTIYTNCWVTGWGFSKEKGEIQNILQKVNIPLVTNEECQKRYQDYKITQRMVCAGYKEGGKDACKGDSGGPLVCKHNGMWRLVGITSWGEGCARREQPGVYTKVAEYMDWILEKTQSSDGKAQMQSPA
Sequence of human plasma kallikrein (P03952 20-390 partner): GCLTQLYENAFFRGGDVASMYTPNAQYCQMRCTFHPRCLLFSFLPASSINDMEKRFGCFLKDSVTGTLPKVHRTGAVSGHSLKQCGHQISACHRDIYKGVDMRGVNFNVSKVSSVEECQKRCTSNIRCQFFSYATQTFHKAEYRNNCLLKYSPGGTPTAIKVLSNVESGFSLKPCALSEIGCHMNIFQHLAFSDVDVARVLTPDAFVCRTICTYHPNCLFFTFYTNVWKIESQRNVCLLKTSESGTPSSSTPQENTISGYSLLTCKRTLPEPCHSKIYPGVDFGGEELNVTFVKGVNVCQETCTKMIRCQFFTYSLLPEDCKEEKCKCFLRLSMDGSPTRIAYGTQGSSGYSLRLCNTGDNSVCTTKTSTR

A word on the IC50: it is the point on the concentration scale where inhibition reaches its midpoint. For the molecule `CNC(=O)c1ccc(NC(=O)C(Cc2ccn(C)n2)n2cc(OC)c(-c3cc(F)ccc3C#N)cc2=O)cn1` (racemic) [Example 49, 5-({2-[4-(2-Cyano-5-fluorophenyl)-5-methoxy-2-oxopyridin-1(2H)-yl]-3-(1-methyl-1H-pyrazol-3-yl)propanoyl}amino)-N-methylpyridine-2-carboxamide (racemate)], the IC50 on human factor XIa is 160 nM; on human plasma kallikrein, 130 nM.

As to `CNC(=O)c1ccc(NC(=O)C(Cc2ccn(C)n2)n2cc(C3CC3)c(-c3cc(Cl)ccc3C#N)cc2=O)cn1` (racemic) [Example 51, 5-({2-[4-(5-Chloro-2-cyanophenyl)-5-cyclopropyl-2-oxopyridin-1(2H)-yl]-3-(1-methyl-1H-pyrazol-3-yl)propanoyl}amino)-N-methylpyridine-2-carboxamide (racemate)], the figures for the IC50 against human factor XIa and against human plasma kallikrein were 200 nM and 80 nM, respectively.

For the molecule `CCC(C(=O)Nc1ccc(C(N)=O)nc1)n1cc(OC)c(-c2cc(Cl)ccc2C#N)cc1=O` (centres unmarked) [Example 1], the IC50 came out at 20 nM against human factor XIa and 22 nM at human plasma kallikrein.

Consider `CCC(C(=O)Nc1ccc(C(=O)NC)nc1)n1cc(OC)c(-c2cc(Cl)ccc2C#N)cc1=O` (centres unmarked) [Example 2], for which the IC50 at human factor XIa was found to be 20 nM; against human plasma kallikrein it was 16 nM.

With `COCCC(C(=O)Nc1ccc(C(N)=O)nc1)n1cc(Cl)c(-c2cc(Cl)ccc2C#N)cc1=O` (centres unmarked) [Example 3], the IC50 against human factor XIa worked out at 29 nM; on human plasma kallikrein, 100 nM.

With `N#Cc1ccc(Cl)cc1-c1cc(=O)n(C(C[C@@H]2CCCCO2)C(=O)Nc2ccc(C(N)=O)nc2)cc1Cl` (some centres unmarked) [Example 4], the IC50 worked out at 16 nM at human factor XIa and 140 nM against human plasma kallikrein.

For `CNC(=O)c1ccc(NC(=O)C(C[C@@H]2CCCCO2)n2cc(Cl)c(-c3cc(Cl)ccc3C#N)cc2=O)cn1` (some centres unmarked) [Example 5], the IC50 at human factor XIa is 12 nM; at human plasma kallikrein, 120 nM.

Consider `N#Cc1ccc(Cl)cc1-c1cc(=O)n(C(Cc2ccccn2)C(=O)Nc2ccc(C(N)=O)nc2)cc1OC(F)F` (centres unmarked) [Example 7], for which the IC50 is 160 nM at human factor XIa and 490 nM against human plasma kallikrein.

Turning to `COc1cn(C(Cc2cccnc2)C(=O)Nc2ccc(C(N)=O)nc2)c(=O)cc1-c1cc(Cl)ccc1C#N` (centres unmarked) [Example 8], the IC50 came out at 11 nM at human factor XIa and 6 nM against human plasma kallikrein.

Turning to `N#Cc1ccc(Cl)cc1-c1cc(=O)n(C(Cc2cocn2)C(=O)Nc2ccc(C(N)=O)nc2)cc1Cl` (centres unmarked) [Example 10], the IC50 at human factor XIa was determined as 210 nM; at human plasma kallikrein it was 470 nM.

On to `COc1cn(C(Cc2cocn2)C(=O)Nc2ccc(C(N)=O)nc2)c(=O)cc1-c1cc(Cl)ccc1C#N` (centres unmarked) [Example 11], for which the IC50 was found to be 48 nM at human factor XIa and 52 nM at human plasma kallikrein.

`N#Cc1ccc(Cl)cc1-c1cc(=O)n(C(Cc2cnco2)C(=O)Nc2ccc(C(N)=O)nc2)cc1OC(F)F` (centres unmarked) [Example 12]: the IC50 against human factor XIa came to 210 nM; at human plasma kallikrein, 640 nM.

Turning to `COc1cn(C(Cc2ccccn2)C(=O)Nc2ccc(C(N)=O)nc2)c(=O)cc1-c1cc(Cl)ccc1F` (centres unmarked) [Example 13], the IC50 against human factor XIa came to 220 nM; at human plasma kallikrein, 250 nM.

Regarding `COc1cn(C(Cc2cc(C)no2)C(=O)Nc2ccc(C(N)=O)nc2)c(=O)cc1-c1cc(Cl)ccc1F` (centres unmarked) [Example 14], the IC50 turned out to be 390 nM at human factor XIa and 160 nM against human plasma kallikrein.

`CNC(=O)c1ccc(NC(=O)C(CCOC)n2cc(Cl)c(-c3cc(Cl)ccc3C#N)cc2=O)cn1` (centres unmarked) [Example 15]: the IC50 against human factor XIa amounted to 23 nM; against human plasma kallikrein, 53 nM.

With `N#Cc1ccc(Cl)cc1-c1cc(=O)n(C(Cc2cnco2)C(=O)Nc2ccc(C(N)=O)nc2)cc1Cl` (centres unmarked) [Example 16], the IC50 came out at 32 nM at human factor XIa and 89 nM at human plasma kallikrein.
